[C(1O2)] = modified PNA monomer acting as cytosine, C(pOq) type, 1O2; [A(5)] = modified PNA monomer acting as adenine, A(p) type, p=5; [G(5)] = modified PNA monomer acting as guanine, G(p) type, p=5; [G(6)] = modified PNA monomer acting as guanine, G(p) type, p=6; {Fethoc} = N-terminal Fethoc cap; {NH2} = C-terminal amide
Legend:
mdx mice = assay: Rotarod test in mdx mice; type: in vivo, mouse; conditions: 100 pmole/Kg subcutaneous 3× per week
Procedure: Given with the exon skipping potential, “DMD-ASO 1” was evaluated in mdx mice for its ability to improve muscle function by rotarod test as described below.
[Grouping] 6 weeks old male mdx mice were trained for rotarod test over a period of 2 weeks, and then randomly assigned into 3 groups of 0 (negative control), 100 and 1,000 pmole/Kg “DMD-ASO 1” based on individual scores by rotarod test in Day 0, i.e., the day of grouping. (N=10 per group)
[ASO Treatment] The injection solutions were prepared by serially diluting the ASO to 20 nM and 200 nM in PBS. Animals were subcutaneously administered with vehicle (PBS, negative control), 20 nM “DMD-ASO 1” (100 pmole/Kg), or 200 nM “DMD-ASO 1” (1,000 pmole/Kg) at 5 mL/Kg, 3× per week over a period of Day 0 to Day 21.
[Rotarod Test and Statistical Analysis] Mice were subjected to rotarod test on a rotarod apparatus (Model #47650, Ugo Basile) with an acceleration schedule of 4 rpm to 45 rpm over 60 seconds. The latency to fall (i.e., the duration that animal remained on the rotarod) was scored for each individual animal. Statistical significance was evaluated by student's t-test against the negative control group.

[1] = test system: sodium ion current in rat DRG cells; assay: CoroNa assay of sodium current in rat L5 DRG neuronal cells; type: cell-based; conditions: rat L5 DRG cells without L5/L6 ligation, 30 hrs
Procedure: “SCN-ASO 27” was evaluated for its ability to inhibit the sodium ion current in rat DRG (dorsal root ganglion) cells using “CoroNa Green” as follows.
[SNL Surgery by L5/L6 Ligation] In Day 0, 6 weeks old male SD rats were anesthetized with zoletil/rompun. Then the L5 and L6 spinal nerve (left side) were exposed and tightly ligated. The muscle and skin were closed and clipped by due aseptic procedures. The rats were sporadically sensitized by von Frey scoring over a period of 4 weeks.
[Preparation of DRG Neuronal Cells] In Day 31, a rat showing a low von Frey score was sacrificed to extract both the left (ligated side) and the right (non-ligated side) DRG. […]
[ASO Treatment & CoroNa Assay] […] The culture dish was mounted on a fluorescence microscope equipped with a CCD camera to continuously capture the green fluorescent images of the cells. The cells were acutely treated with 10 mM NaCl, and then the changes in the cellular fluorescent intensity were digitally recorded over a period of 300 sec. […] The fluorescence intensities from each individual cell were traced at a resolution of a second. The traces of the intracellular fluorescence intensities from individual cells were averaged using ImageJ program (version 1.50i, NIH), and the average traces are provided in FIGS. 33A and 33B for the cells with “L5/L6 ligation” and without “L5/L6 ligation”, respectively. […]

SCN9A mRNA = assay: SCN9A nested qPCR by SYBR Green in PC3 cells; type: cell-based, human; conditions: 24 hours
Procedure: “SCN-ASO 7” was evaluated for its ability to inhibit the expression of the human SCN9A mRNA in PC3 cells by qPCR against a set of exon-specific primers as follows. [Cell Culture & ASO Treatment] PC3 cells grown in 60 mm culture dish containing 5 mL culture medium were incubated with “SCN-ASO 7” for 24 hours at 0 (negative control), 10, 100 or 1,000 zM. (2 culture dishes per concentration) [RNA Extraction] […] [cDNA Synthesis by One Step RT-PCR] […] NO: 78); and SCN-exon 9_reverse: (5'→3') […] NO: 79)]. […] [Nested qPCR Amplification] […] NO: 80); SCN-exon 4_reverse: (5'→3') […] NO: 81); SCN-exon 5_forward: (5'→3') […] NO: 82); SCN-exon 5_reverse: (5'→3') […] NO: 83); SCN-exon 6_forward: (5'→3') […] NO: 84); SCN-exon 6_reverse: (5'→3') […] NO: 85)]. The PCR reactions were probed with SYBR Green (Takara, Japan). […] “SCN-ASO 3” was evaluated for its ability to inhibit the expression of the full-length SCN9A mRNA in PC3 cells according to the protocol described in “SCN9A Example 2”, unless noted otherwise. “SCN-ASO 8” was evaluated for its ability to inhibit the expression of the full-length SCN9A mRNA in PC3 cells according to the protocol described in “SCN9A Example 2”, unless noted otherwise.

Fethoc-A(5)GA-G(6)CC(1O2)-TCA-A(5)AA(5)-T-NH2 (antisense AGAGCCTCAAAAT; Fethoc N-cap, C-terminal amide, chemistry not fully specified) [DMD-ASO 1]
muscle function by rotarod test (mdx mice): showed a strong propensity of improvement, but was not significant

Fethoc-AA(5)G-TG(5)T-A(5)CC(1O2)-TA(5)A-A(5)C-NH2 (AAGTGTACCTAAAC; splice-switching; all peptide nucleic acid (PNA), [A(5)] at 2, 7, 11, 13, [G(5)] at 5, [C(1O2)] at 9, 5' {Fethoc}, 3' {NH2}; peptide nucleic acid written N to C) [SCN-ASO 27]
decrease in fluorescence intensity (CoroNa) ([1]; 1 aM): ~50% | decrease in fluorescence intensity (CoroNa) ([1]; 100 zM): no decrease

Fethoc-AC(1O2)T-TA(5)C-G(6)CA-A(5)AA(5)-AC(1O2)A-A(5)-NH2 (ACTTACGCAAAAACAA; all peptide nucleic acid (PNA), [C(1O2)] at 2, 14, [A(5)] at 5, 10, 12, 16, [G(6)] at 7, 5' {Fethoc}, 3' {NH2}; peptide nucleic acid written N to C) [SCN-ASO 7]
decrease of expression levels of SCN9A exons 4-6 (SYBR Green) (SCN9A mRNA; PC3 cells, 10 zM): ~70% | decrease of expression levels of SCN9A exons 4-6 (SYBR Green) (SCN9A mRNA; PC3 cells, 100 zM): 40% | decrease of expression levels of SCN9A exons 4-6 (SYBR Green) (SCN9A mRNA; PC3 cells, 1,000 zM): 20-30%

Source: patent publication US12624068B2, “Exon skipping by peptide nucleic acid derivatives” (OliPass Corporation, priority 2016, dated 2026)
